Legend:
Type in all cases: cell-based
F508del-CFTR = biological target: T1, F508del-CFTR (Homo sapiens, UniProt P13569, DEL508-508); experiment: Dose response, potentiation of forskolin-activated F508del-CFTR chloride channel activity in CFBE41o- cells (fluorescence membrane potential assay); settings: low temperature (27 degrees Celsius) correction, read-out: potency in potentiating cyclic AMP dependent F508del-CFTR chloride channel activity
T1 construct: F508del-CFTR was endogenously expressed in CFBE41o^− cells; endogenous in cells; host or cells: CFBE41o-
Method: In these studies, F508del-CFTR was endogenously expressed in CFBE41o^− cells and it's trafficking defect corrected by low temperature (27 degrees Celsius) incubation. The fold increase in cyclic AMP dependent F508del-CFTR mediated chloride channel activity induced by potentiator treatment was determined using the fluorescence-based, membrane potential difference assay previously described.

[1] = test system: primary differentiated human bronchial epithelial cultures; experiment: Bead tracking assay of mucociliary movement, primary bronchial epithelial cultures exposed to cigarette smoke extract
Method: Compound 11 was tested in an in-vitro model of COPD. In this model, primary differentiated human bronchial epithelial cultures were exposed to cigarette smoke extract (4,5). Exposure to cigarette smoke extract (CSE) led to mucostasis and slowed mucociliary movement (FIG. 1(A) and (B)). […] Changes in mucociliary movement were determined as in our previous publication (7), i.e., by tracking the speed of fluorescent beads added to the surface of the airway cultures. The relative rescue effect of Compound 11 compared favourably relative to the competitor, the FDA approved CFTR potentiator marketed as Ivacaftor (VX-770).
Mature bronchial epithelial cultures, seeded on 24-well transwell inserts, derived from non-smoker donors of variable ages were received from the University of Iowa and cultured at air-liquid interface (ALI) using UltraG medium. A total of 6 inserts per donor were cultured, and all inserts from a single donor were selected to receive chronic drug and toxin treatment. Ahead of chronic treatment, cultures were subject to mucomist to reduce the volume and viscosity of the mucous layer ahead of imaging. Cultures were first washed twice with 200 uL HBSS (Wisent) applied apically to the transwell, each wash for 10 minutes at 37 degrees and 5% CO2. Cells were then incubated with 10 μM N-acetyl-cysteine (source?) dissolved in HBSS (Wisent) for 30 minutes, followed by a final HBSS wash as described previously. The toxin treatment consisted of either cigarette smoke extract (CSE) prepared in 100% DMSO (University of Alabama at Birmingham), dissolved at a concentration of 2% (v/v) in UltraG medium, with an equivalent concentration of DMSO alone serving as a control. The chronic drug treatment was co-applied with the toxin treatment, which included either VX-770 (Vertex) or SK-POT, aka Compound 11 (both prepared in 100% DMSO) dissolved in UltraG medium at a final concentration of 1 μm. There were a total of 6 chronic treatments, with each of the 6 inserts per donor receiving a different chronic treatment. Bronchial epithelia were incubated with the chronic treatment, applied apically, for 24 hours at 37 degrees C. and 5% CO2. After 24 hours, green fluorescent microspheres (brand?) dissolved in HBSS at a concentration of 0.05% (v/v) were applied apically; cultures were incubated with the microspheres for 45 minutes. The toxin and potentiator treatments were carried forth into the microsphere solution.
Inserts were then imaged at room temperature by epifluorescence microscopy (Zeiss or Olympus). The basic replicate of the assay consists of a 5-second video captured in the green channel and 40-60 frames per second; Z-position was adjusted ahead of each video to ensure beads in the airway surface liquid stratum immediately above the cilia were being captured. 5 videos were captured per insert/conditions, representing the centre and 4 corners of the insert. 2 sets of 5 videos were captured per insert/condition: one at baseline, and one 20 minutes following CFTR stimulation by forskolin at a concentration of 10 μM. Inserts were incubated at room temperature after forskolin addition.
Videos were captured using Volocity software and exported as one TIF file per frame. Frames were then re-compiled into complete videos using Arivis 4D software. Using an algorithm as previously described in Wu et al. 2017, microspheres were highlighted by adjusting two parameters: fluorescence intensity and diameter. […]

Wt-CFTR = Wt-CFTR (Homo sapiens, UniProt P13569); experiment: Calu-3 CSE experiments, FLiPR assay of CFTR channel activity; set-up: this airway epithelial cell line endogenously expresses this channel; endogenous in cells; host or cells: Calu-3
Method: Addition of CFTR-inhibitor indicated with grey arrow. Superimposed, we show the effect of acute co-application of VX-770 (open squares) or SK-POT (open triangles) with forskolin. […] Only SK-POT rescued CFTR channel function in the presence of cigarette smoke extract.
Calu-3 cells were cultured using EMEM (Wisent) supplemented with FBS at 20% (v/v) and 1× Penicillin/Streptomycin (Wisent). Calu-3 cells were seeded on clear-bottom, black-walled 96 well plates (Costar, Corning) at a density of 10,000 cells/well and cultured for 2 days post-confluence. Cells then received the chronic treatment of toxin and potentiator. The toxin treatment consisted of either cigarette smoke extract (CSE) prepared in 100% DMSO (University of Alabama at Birmingham), dissolved at a concentration of 2% (v/v) in Calu-3 medium, with an equivalent concentration of DMSO alone serving as the toxin control. The chronic drug treatment was co-applied with the toxin, which included either VX-770 or Compound 11 (both prepared in 100% DMSO) dissolved in Calu-3 medium at a final concentration of 1 μm. VX-770 (Vertex) and Compound 11 solutions were prepared from 1 mM stocks. The control for the drug treatment was the vehicle, DMSO at an equivalent volume. Combining the two toxin treatments and three drug treatments, a total of six treatments were applied chronically to 4 wells per condition, for a total of 24 wells receiving chronic treatment.
Cells were cultured for an additional 24 hours after chronic treatment application, after which cells were incubated with FLiPR assay buffer. The FLiPR assay buffer consisted of blue FLiPR dye (Molecular Devices) dissolved at a concentration of 0.5 mg/mL in chloride-free buffer (150 mM NMDG, 150 mM gluconolactone, 3 mM potassium gluconate, 300 mOsm and pH 7.38). Buffer was incubated with cells at 37 degrees and 5% CO2 for 35 minutes. CFTR function was assessed by measuring changes in fluorescence activity after acute CFTR channel activation by addition of cAMP agonist forskolin dissolved in chloride-free buffer to a final concentration 1 μm, using the SpectraMax i3x multimodal plate reader. Fluorescence readings (excitation 530 nm; emission 560 nm) for each well were taken at 30-second intervals for 5 minutes (baseline) or 10 minutes (activation). CFTR activity was then terminated by addition of CFTR-inhibitor 172 dissolved in chloride-free buffer to a concentration of 10 μm, to further verify the specificity of the response to CFTR activity. Fluorescence changes were recorded at 30-second intervals for another 10 minutes. In analysis, all fluorescence values were normalized per well to the final reading prior to the addition of forskolin and expressed as a percentage of this reading.

wild-type human CFTR = biological target: T2, wild-type human CFTR (Homo sapiens, UniProt P13569); experiment: Cell-attached patch clamp of CFTR channel potentiation in HEK-293 cells; settings: one active channel with forskolin alone
T2 construct: host or cells: HEK-293
T2 sequence (P13569 whole entry): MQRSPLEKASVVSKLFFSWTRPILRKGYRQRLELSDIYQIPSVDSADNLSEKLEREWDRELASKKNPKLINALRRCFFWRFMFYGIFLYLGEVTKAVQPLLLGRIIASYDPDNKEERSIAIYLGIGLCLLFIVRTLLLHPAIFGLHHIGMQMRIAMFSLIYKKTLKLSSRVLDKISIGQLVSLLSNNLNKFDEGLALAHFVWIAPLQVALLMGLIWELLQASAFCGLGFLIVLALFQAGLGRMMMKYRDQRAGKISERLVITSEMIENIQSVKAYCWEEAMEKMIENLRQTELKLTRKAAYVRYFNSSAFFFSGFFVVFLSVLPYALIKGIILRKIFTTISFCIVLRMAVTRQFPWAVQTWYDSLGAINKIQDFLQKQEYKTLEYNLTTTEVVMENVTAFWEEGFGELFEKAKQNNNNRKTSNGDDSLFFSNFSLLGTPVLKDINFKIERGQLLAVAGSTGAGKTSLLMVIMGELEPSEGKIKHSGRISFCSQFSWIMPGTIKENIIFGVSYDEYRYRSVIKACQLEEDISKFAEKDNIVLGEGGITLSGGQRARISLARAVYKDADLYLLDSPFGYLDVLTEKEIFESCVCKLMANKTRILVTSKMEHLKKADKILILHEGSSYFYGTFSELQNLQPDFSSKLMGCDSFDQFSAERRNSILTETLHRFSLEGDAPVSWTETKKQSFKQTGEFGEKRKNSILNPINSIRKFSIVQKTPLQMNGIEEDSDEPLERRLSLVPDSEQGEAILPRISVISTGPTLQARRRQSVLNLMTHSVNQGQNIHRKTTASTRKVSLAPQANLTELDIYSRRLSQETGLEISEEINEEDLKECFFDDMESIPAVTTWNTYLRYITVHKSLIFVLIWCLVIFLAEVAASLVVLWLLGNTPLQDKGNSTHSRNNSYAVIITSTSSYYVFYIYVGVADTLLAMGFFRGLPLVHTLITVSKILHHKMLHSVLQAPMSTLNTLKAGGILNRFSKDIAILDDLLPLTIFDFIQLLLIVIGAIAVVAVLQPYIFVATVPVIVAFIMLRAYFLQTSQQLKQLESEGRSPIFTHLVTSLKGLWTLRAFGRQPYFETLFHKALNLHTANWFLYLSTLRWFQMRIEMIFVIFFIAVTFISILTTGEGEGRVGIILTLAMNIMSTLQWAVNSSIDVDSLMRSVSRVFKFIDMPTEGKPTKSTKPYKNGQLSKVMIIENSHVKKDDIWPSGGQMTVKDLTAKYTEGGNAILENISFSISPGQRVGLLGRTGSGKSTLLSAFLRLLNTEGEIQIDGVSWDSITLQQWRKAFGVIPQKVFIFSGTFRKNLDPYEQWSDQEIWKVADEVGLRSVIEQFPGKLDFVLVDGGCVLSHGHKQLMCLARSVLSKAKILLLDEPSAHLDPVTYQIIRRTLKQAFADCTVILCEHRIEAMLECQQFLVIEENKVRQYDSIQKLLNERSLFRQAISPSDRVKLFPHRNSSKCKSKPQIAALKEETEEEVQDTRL
Method: HEK-293 cells stably expressing wild-type human CFTR in patch clamp studies of single channel activity were used. […] CFTR Cl^− channels were recorded in cell-attached membrane patches using an Axopatch 200A patch clamp amplifier and pCLAMP software (both from Molecular Devices, Sunnyvale, CA). The pipette and bath (extracellular) solutions contained 140 mm N-methyl-d-glucamine, 140 mm aspartic acid, 5 mm CaCl2, 2 mm MgSO4, and 10 mm TES, adjusted to pH 7.3 with Tris ([Cl^−]: 10 mM). The bath was maintained at room temperature.
In order to activate Wt-CFTR channels, 10 uM forskolin was added to the bath. […] To determine channel number, we used the maximum number of simultaneous channel openings observed during the experimental procedure. Single channel recordings were filtered and digitized data as described previously. To measure single-channel current amplitude, Gaussian distributions were fitted to current amplitude histograms. To measure Po, lists of open and closed times were created using a half-amplitude crossing criterion for event detection, and dwell time histograms were constructed and fitted. For the purpose of illustration, single-channel records were filtered at 500 Hz.

Wt-CFTR, sequence (P13569 whole entry): as above
T1 sequence (P13569 with tags, fused parts or gaps DEL508-508): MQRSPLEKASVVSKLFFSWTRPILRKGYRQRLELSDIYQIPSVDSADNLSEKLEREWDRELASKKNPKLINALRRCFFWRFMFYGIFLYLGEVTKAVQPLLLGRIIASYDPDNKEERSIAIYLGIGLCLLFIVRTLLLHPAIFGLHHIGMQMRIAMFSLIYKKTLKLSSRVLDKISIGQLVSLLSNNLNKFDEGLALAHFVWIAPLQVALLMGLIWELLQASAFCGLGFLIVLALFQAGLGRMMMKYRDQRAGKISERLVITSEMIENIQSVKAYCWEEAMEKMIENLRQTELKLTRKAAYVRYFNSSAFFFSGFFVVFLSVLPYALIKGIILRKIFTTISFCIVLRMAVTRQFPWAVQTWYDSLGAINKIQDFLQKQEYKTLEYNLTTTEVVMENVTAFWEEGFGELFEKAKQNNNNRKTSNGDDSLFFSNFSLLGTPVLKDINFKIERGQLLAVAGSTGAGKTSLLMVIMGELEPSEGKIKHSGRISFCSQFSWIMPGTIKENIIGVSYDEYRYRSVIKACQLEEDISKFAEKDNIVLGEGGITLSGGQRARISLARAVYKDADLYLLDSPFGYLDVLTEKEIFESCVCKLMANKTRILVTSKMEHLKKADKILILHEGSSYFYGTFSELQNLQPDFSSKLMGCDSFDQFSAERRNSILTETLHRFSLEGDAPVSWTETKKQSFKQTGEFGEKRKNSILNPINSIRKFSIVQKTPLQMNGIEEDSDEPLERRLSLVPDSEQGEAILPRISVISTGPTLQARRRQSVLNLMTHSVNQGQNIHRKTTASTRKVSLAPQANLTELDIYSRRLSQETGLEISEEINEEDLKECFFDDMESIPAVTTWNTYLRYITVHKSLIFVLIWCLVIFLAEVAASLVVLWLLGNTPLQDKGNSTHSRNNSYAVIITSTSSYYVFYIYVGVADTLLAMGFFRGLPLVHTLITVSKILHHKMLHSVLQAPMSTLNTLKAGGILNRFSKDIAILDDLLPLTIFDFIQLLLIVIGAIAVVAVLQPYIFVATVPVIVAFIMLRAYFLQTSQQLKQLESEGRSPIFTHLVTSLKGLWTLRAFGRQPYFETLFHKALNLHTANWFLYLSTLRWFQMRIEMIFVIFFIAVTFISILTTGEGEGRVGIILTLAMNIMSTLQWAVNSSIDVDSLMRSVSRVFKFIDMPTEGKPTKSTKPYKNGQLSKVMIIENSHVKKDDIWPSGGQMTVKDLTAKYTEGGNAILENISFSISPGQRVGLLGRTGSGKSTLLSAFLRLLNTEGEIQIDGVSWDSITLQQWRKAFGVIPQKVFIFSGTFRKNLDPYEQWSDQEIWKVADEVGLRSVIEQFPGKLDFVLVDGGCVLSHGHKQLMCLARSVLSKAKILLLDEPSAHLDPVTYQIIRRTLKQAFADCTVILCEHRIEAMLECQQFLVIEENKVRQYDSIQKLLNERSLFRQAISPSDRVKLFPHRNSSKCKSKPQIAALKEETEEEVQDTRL

| EC50 (F508del-CFTR) [nM] | EC90 (Wt-CFTR; Calu-3, CFTR channel potentiation, read-out: approximate EC90) [nM] | Compound | mucostasis / bead velocity in CSE-treated cultures ([1]; CSE 2%, compound 1 μM for 24 hours, forskolin 10 μM) | bead velocity under control conditions ([1]; no CSE, compound added with vehicle for 24 hours) | forskolin-activated CFTR channel activity after CSE exposure (Wt-CFTR; Calu-3, CSE 2%, compounds 1 uM) | number of active channels (wild-type human CFTR) |
| --- | --- | --- | --- | --- | --- | --- |
| 32 | ~1000 | CC(C)(C)c1cc(C(C)(C)C)c(NC(=O)c2c[nH]c3ccccc3c2=O)cc1O [VX-770, reference compound] | a significant increase in the forskolin induced response in CSE-treated cultures after VX-770 addition was not observed | Neither VX-770 nor Compound 11 had any impact on bead velocity | only (SK-POT) treatment led to a significant increase | – |
| – | – | CFTRinh-172 | – | – | – | significant decrease in the number of active channels |
